Laboratory results published in patent US20050153938A1, “Polyphosphonate derivatives for toothpaste compositions” (Universite D'Angers, priority 2002, published 2005).

Experiments:
[1] = Tests of efficiency of polyphosphonate compounds for preventing bonding of proteins; details: compared with diphosphonic esters, sulfonates, phosphates, carboxylates and diphosphates
Protocol: One particular difficulty lies in identification of compounds with a particularly efficient behaviour for the required application.
This TMADP compound has been synthesised in a single step using hydroxyethylidene biphosphonic acid (HEDP) and glycidyltrimethylammonium chloride. The reaction was done in DMSO previously conserved on a molecular sieve. After dissolution of HEDP (2 g; 14.5×10^−3 mol) at 50° C. in 30 ml of DMSO, the epoxyde (2.2 g; 14.5×10^−3 mol) is added and the temperature is increased to 110° C. for 24 hours. The DMSO is then evaporated at low pressure and the raw product is dissolved in a minimum amount of distilled water. The TMADP product is then chromatographed on a cation exchanger resin (DOWEX 50WX8-20/50 Mesh, H+form). The column is eluted with distilled water and the pure product is collected at a pH of between 3.0 and 3.5.

[2] = Model of protection of a stainless steel plate against bonding of proteins
From the text: A sufficient coverage quantity of TMADP molecules on this model is […] per nm^2 of plaque surface area.

| Compound | efficiency of the compound (result in words) [1] | contamination by proteins ([2]; TMADP concentration 2.86×10^−4 mol.I-1, 10 minutes incubation of the plaque (stainless steel plate)) | contamination by proteins ([2]; TMADP concentration about 1.4×10^−4 mol.I-1, stainless steel plate) |
| --- | --- | --- | --- |
| C[N+](C)(C)CCCCCC(P(=O)(O)O)P(=O)(O)O [6-trimethylammoniohexyl-1,1-bisphosphonic acid] | particularly conclusive results | – | – |
| CC(OCC(O)C[N+](C)(C)C)(P(=O)(O)O)P(=O)(O)O.[Cl-] (stereo not shown) [TMADP, 2,2-diphosphono-5-hydroxy-3-oxa-6-hexyltrimethylammonium (TMADP) chloride] | particularly conclusive results | less than 10% | about 15% |
